Source: patent US8460867B2, “Methods of treating psychosis and schizophrenia based on polymorphisms in the CNTF gene” (Novartis AG, priority 2001, dated 2013)

Legend:
schizophrenic patients = test: Clinical trial of Iloperidone in schizophrenic patients, pharmacogenetic analysis by CNTF 103 G>A genotype; assay type: in vivo, human
From the text: In an effort to identify genetic factors that may associate with treatment response to Iloperidone, the relationship between a polymorphism in the CNTF (ciliary neurotrophic factor) gene (located on 11q12.2, the polymorphism being 103 G>A in GenBank sequence X55890 (Version 1), see PubMed: 9285965) and the clinical response to the antipsychotic Iloperidone in a clinical trial was investigated. This trial was a randomized, double-blind, placebo- and risperidone-controlled, multicenter study to evaluate the efficacy and safety of two non-overlapping dose ranges of lloperidone (12 or 16 mg/d and 20 or 24 mg/d and risperidone (6 or 8 mg/d) compared with placebo, given twice-daily (b.i.d) for 42 days to schizophrenic patients followed by a long-term treatment phase with lloperidone given once daily (q.d) at doses of 4, 8, 12, 16, or 24 mg/d for 46 weeks to patients with schizophrenia.
Pharmacogenetic analysis for candidate gene polymorphisms was conducted in Phase II of the clinical trial. It was determined whether the CNTF (ciliary neurotrophic factor) 103 G>A polymorphism (GenBank sequence X55890 (Version 1)) 103 G>A, (expressed protein alteration FS63 TER) was associated with any of the clinical parameters of efficacy studied in the course of the clinical trial and specifically changes in the BPRSA, Total PANNS, Positive PANNS, Negative PANNS and General PANNS scales.
A total of 207 unique blood samples were collected from the patients at the trial sites. The DNA was extracted by Covance (Geneva) using the PUREGENE™ DNA Isolation Kit (D-50K). The CNTF 103 G>A polymorphism (GenBank sequence X55890 (Version 1)) polymorphism was described by Takahashi, see, Takahashi et al. Nature Genet. 7: 79-84, 1994.
The probe sets for genotyping were designed and synthesized by Third Wave Technologies, Inc (Madison, Wis.). […]

ob/ob mice = conditions: systemic administration; cited from earlier work
pmn/pmn mice = conditions: also when degenerative alterations were already present; cited from earlier work
[1] = test system: mice with diet-induced obesity; conditions: partially resistant to leptin; cited from earlier work
db/db mice = conditions: which lack a functional leptin receptor; cited from earlier work

| Molecule | association of Total PANSS and BPRSA with the CNTF 103 G>A polymorphism (schizophrenic patients; 12-16 mg dose (Group A), analysis of variance within treatments, p<0.001) | response of the GG type versus the placebo (schizophrenic patients; 12-16 mg treatment group, GG type of the CNTF gene, p<0.001) | treatment response (BPRSA and Total PANNS scales), GG type versus non-GG type of the CNTF gene (schizophrenic patients; 12-16 mg treatment group, schizophrenic patients, 42 days b.i.d.) | induction of the tis-11 primary response gene in the arcuate nucleus (ob/ob mice) | motor function and morphologic symptoms of neural degeneration (pmn/pmn mice) | obesity-related phenotypes [1] | obesity-related phenotypes (db/db mice) |
| --- | --- | --- | --- | --- | --- | --- | --- |
| COc1cc(C(C)=O)ccc1OCCCN1CCC(c2noc3cc(F)ccc23)CC1 [Iloperidone] | significantly associated | highly significant | responded significantly better than the non-GG type |  |  |  |  |
| LEP: leptin (LEP) cytokine |  |  |  | rapid induction |  |  |  |
| CNTF: Ciliary Neurotrophic Factor, survival factor for neuronal cell types, member of the interleukin-6 cytokine family (protein, UniProt P26441 1-200, looked up) Ciliary neurotrophic factor: MAFTEHSPLTPHRRDLCSRSIWLARKIRSDLTALTESYVKHQGLNKNINLDSADGMPVASTDQWSELTEAERLQENLQAYRTFHVLLARLLEDQQVHFTPTEGDFHQAIHTLLLQVAAFAYQIEELMILLEYKIPRNEADGMPINVGDGGLFEKKLWGLKVLQELSQWTVRSIHDLRFISSHQTGIPARGSHYIANNKKM |  |  |  | rapid induction | successfully improved motor function and reduced the morphologic symptoms of neural degeneration | reduced obesity-related phenotypes | reduced obesity-related phenotypes |
